Test results as given in patent US8802635B2, “Antioxidant, anti-inflammatory, anti-radiation, metal chelating compounds and uses thereof” (Oneday—Biotech And Pharma Ltd., priority 2011, dated 2014).
Non-standard residues stand in square brackets, D forms with d. βAla = NCCC(=O)O

Assays:
[1] = test system: JNK (c-Jun N-terminal kinases); test: Inhibition of oxidative stress (auranofin)-induced JNK phosphorylation in SH-SY5Y cells; format: cell-based, Human; conditions: auranofin 5 μM
Procedure: Human neuroblastoma SH-SY5Y cells were maintained in Dulbecco's modified Eagle's medium (DMEM, Invitrogen) supplemented with 10% fetal bovine serum (Invitrogen), 100 μg/ml streptomycin and 100 U/ml penicillin G (Gibco). Cells were plated at a density of 6.25×10^4/cm^2 and incubated for 24 hours, after which they were exposed to different treatments.
SH-SY5Y cells were plated on 96-well plates and treated with Auranofin (AuF) (5 μM) for 30 min. Then the cells were washed with PBS and treated with either one of the peptides at the indicated concentrations. Twenty-four hours later, the cells were fixed with glutaraldehyde in final concentration of 0.5% for 10 min. Cells were washed 3 times with DDW dried over night, and washed once with borate buffer (0.1M, pH 8.5). The fixed cells were stained with 200 μl of 1% methylene blue dissolved in borate buffer for 1 hour. After extensive washing and drying, the color was extracted with 200 μl of 0.1 M HCl for 1 h at 37° C. and absorbance was read in spectrophotometer at 630 nm.
Twenty to thirty micrograms of protein samples were loaded on 10-12% SDS-PAGE gels. The proteins were then transferred electrophoretically to nitrocellulose (Whatman, Germany). The blots were blocked by incubation for 1 h at room temperature (RT) in TBS-T (25 mM Tris-HCl pH 7.4, 0.9% NaCl and 0.02% Tween-20) with 4% Difco skim milk (BD, USA), and incubated over-night at 4° C. with the primary antibody: pERK1/2 (Thr 202/Tyr204), mouse mAb, (1:6,000); p-SAPK/JNK (Thr183/Tyr185), rabbit mAb; SAPK/JNK, mouse mAb; p-p38MAP Kinase (Thr180/Tyr182), rabbit mAb; cleaved caspase 3, rabbit mAb. All antibodies were from Cell Signaling Tech. USA, used at 1:1000. Purified b Catenin, mouse mAb, (1:10,000; BD Transduction Laboratories, USA) diluted in 5% BSA, 0.04% Azide in TBS-T. Proteins were detected with Anti-Mouse or Anti-Rabbit IgG-HRP linked antibody (1:10,000; Cell Signaling, Tech. USA).

[2] = test system: alanine aminotransferase (ALT) in plasma / liver necrosis; test: Concanavalin A-induced liver inflammation in C57BL/6 mice; format: in vivo
Procedure: Six groups of C57BL/6 female mice (7-8 weeks old) containing 6 mice in each group were injected i.p. with different peptide on days −3, −2, −1 at a dose of 50 mg/kg or with PBS alone. On day zero all the mice were injected i.v. with 250 μg/mouse of Con A and 45 min. later they were injected i.p. with 150 mg/kg of each peptide or PBS.
Eight hours after Con A injection mice were bled into heparinized tubes (approx. 150 ul of blood from each mouse) and the levels of alanine aminotransferase (ALT) was measured in the plasma.
One day later the mice were sacrificed and their livers were placed in 4% formalin and sent for pathological examination.
Next, peptide DY-66 was examined and compared to N-acetylcysteine (NAC), CB3 and CB4. The compounds were tested according to the procedure described above. ConA dose was 180 μg/mouse.
FIG. 8 presents the change in ALT levels (%) for each of the tested compounds compared to PBS treatment (i.e., the ratio between ALT levels in samples obtained from mice treated with a tested compound and ALT levels in samples obtained from PBS-treated mice)

[3] = Metal chelation: copper binding by mass spectra (ESI); conditions: 0.83 mM peptide, 1.66 mM CuSO4, 1 hour room temperature
Procedure: All five peptides were examined for their ability to bind copper and ferric ions. 0.83 mM of each peptide were mixed with 1.66 mM of either FeCL3 or CuSO4. The mixtures were incubated for 1 hour at room temperature and further kept at ° 4 C until analysis. Samples were analyzed by mass spectra (ESI).

IkappaBalpha = test: Cytoplasmic stability of I-kappaBalpha in lung, zymosan-induced inflammation; format: in vivo, mice; conditions: lung tissue, 24 hours after zymosan
Procedure: Male BALB/c mice were randomly allocated into the following experimental groups:
The peptides were administered by an intraperitoneal (i.p.) route of administration as described in Example 3.
The peptides were formulated in D5W as described in Example 3. The vehicle control was D5W.
At 24 hours after administration of zymosan, animals were euthanized and assessed for inflammation by an NF-κB analysis of lung tissue.
Tissues were homogenized and nuclear extracts prepared via centrifugation. ELISA for IkappaBalpha was performed, using a series of standards in order to define absolute concentrations.

HaCaT cells = test: Hydrogen peroxide-induced HaCaT keratinocyte cytotoxicity (MTT); format: cell-based; conditions: 90 μM hydrogen peroxide 30 min; MTT after 72 hours
Procedure: All five peptides were examined in this Example, and their activity was compared to the known CB3 peptide. HaCaT cells were seeded in 96-well plate at a concentration of 10×10^4 cells/ml for 24 hours. Then cells were incubated with the peptides at the indicated concentrations for 2.5 hours followed by washing with PBS and incubation with 90 μM hydrogen peroxide (without peptide) for 30 minutes. Cells were washed with PBS and incubated with culture medium containing peptide for 72 hours. Cell viability was tested by MTT. The effect of the peptides on cell viability was performed similarly without hydrogen peroxide exposure.

anti-OVA serum IgE = test: Ovalbumin-induced hypersensitivity: serum anti-OVA IgE; format: in vivo, mice; conditions: for effect on OVA-induced elevation of anti-OVA serum IgE titer (in words) / rank order of reduction of anti-OVA serum IgE titer: 125 mg/kg i.p. on days 13, 14, 15, blood day 16
Procedure: Male BALB/c mice (6-8 weeks old) were housed under specific pathogen-free conditions and maintained on a 12-hour light/dark cycle, with food and water ad libitum. All materials and drugs were obtained from Sigma, Inc.
Mice in Groups A, B, C, and E (n=10 per group) were sensitized with intraperitoneal (i.p.) 200 μl of sterile PBS containing 100 μg ovalbumin (OVA) and 1.6 mg alum on days 0 and 7, and challenged with intraperitoneal (i.p.) 200 μl of sterile PBS containing 10 μg ovalbumin (OVA) on day 14 in order to induce an experimental model of allergic peritonitis. Mice in Group F (n=10) were injected with intraperitoneal (i.p) 200 μl sterile PBS (“sham” group, no OVA and no Alum).
Mice in Groups A, B, and C, were treated with 150 μl of sterile PBS containing peptides DY-66, DY-65 and DY-70, respectively, at a dose of 125 mg/kg on days 13, 14, and 15 via an i.p. route of administration.
Mice in Groups E and F were treated with 150 μl of sterile PBS on days 13, 14, and 15 via an i.p. route of administration. On day 14 the test articles (or PBS vehicle) were injected 30 minutes before injecting the OVA.
Blood taken on day 16 was tested for 1) serum anti-OVA IgE, 2) white blood cell count and differential (including absolute and percentage of eosinophils count). Serum was frozen at −80° C. for future optional blood tests.

[4] = Con A 250 μg/mouse i.v., 8 h after Con A

| Substance | IC50 [1] | mice found dead ([2]; 24 hours post Con A 250 μg, 6 mice in each group) | copper binding (in words) [3] | rank order of efficacy on cytoplasmic IkappaBalpha (IkappaBalpha) | protection of cell viability after hydrogen peroxide exposure (in words) (HaCaT cells) | effect on OVA-induced elevation of anti-OVA serum IgE titer (in words) (anti-OVA serum IgE) | rank order of reduction of anti-OVA serum IgE titer (anti-OVA serum IgE) | greatest reduction of the OVA-induced elevation of anti-OVA serum IgE (anti-OVA serum IgE; 125 mg/kg i.p., % of the OVA-induced elevation) | necrotic area in liver, histo-pathological report (in words) ([2]; Con A 250 μg/mouse i.v.) | reduction of ALT average compared to PBS-treated mice [2, 4] | reduction of ALT median compared to PBS-treated mice [2, 4] | reduction of ALT average compared to PBS-treated mice ([2]; ConA dose 180 μg/mouse) | reduction of ALT median compared to PBS-treated mice ([2]; ConA dose 180 μg/mouse) |
| --- | --- | --- | --- | --- | --- | --- | --- | --- | --- | --- | --- | --- | --- |
| N-acetyl-Cys-Lys-Met-Cys-NH2 (Ac-CKMC-NH2; cysteine pairing not given here) [DY-65] | 32.3 µM | 1 | binding was observed | DY-70>DY-65>DY-66 | slightly elevated cell viability | significantly reduced the elevation | DY-65>DY-70>DY-66 | ca. 60% |  |  |  |  |  |
| N-acetyl-Cys-βAla-His-Cys-NH2 (Ac-C[βAla]HC-NH2; cysteine pairing not given here) [DY-66] | 86.9 µM |  | low degree | DY-70>DY-65>DY-66 | slightly elevated cell viability | significantly reduced the elevation | DY-65>DY-70>DY-66 |  | significant (p=0.011) decrease in necrotic area | 69% | 75% | 71% | 89% |
